Test results published in ChEMBL document CHEMBL3045541, “Synthesis and systemic fungicidal activity of silicon-containing azole derivatives” (2000).

Tested on: Rhizoctonia solani
Assay: Fungicidal activity against Rhizoctonia solani infected Oryza sativa var. Nipponbare assessed per 10 […] applied by submerged-treatment 7 days prior to infection measured after 5 days
Type: functional

Compound	MED [g]
C[Si](C)(C)CCC(O)(Cn1cncn1)c1ccc(F)cc1 (stereo unspecified)	>100
CCC(C(O)(Cn1cncn1)c1ccc(F)cc1)[Si](C)(C)C (stereo unspecified)	50
C=CC(C(O)(Cn1cncn1)c1ccc(F)cc1)[Si](C)(C)C (stereo unspecified)	100
C[Si](C)(C)C#CC(O)(Cn1cncn1)c1ccc(Cl)cc1Cl (stereo unspecified)	>100
C=CC(C(O)(Cn1cncn1)c1ccc(Cl)cc1)[Si](C)(C)C (stereo unspecified)	>100
C[Si](C)(C)CC(O)(Cn1ccnn1)c1ccc(F)cc1 (stereo unspecified)	>100
C[Si](C)(C)CC(O)(Cn1nccn1)c1ccc(F)cc1 (stereo unspecified)	>100
CC(C)(n1cncn1)C(O)(C[Si](C)(C)C)c1ccc(F)cc1 (stereo unspecified)	>100
C[Si](C)(C)CC(O)(Cn1ccnc1)c1ccc(F)cc1 (stereo unspecified)	>100
C[Si](C)(C)CC(O)(Cn1cnnc1)c1ccc(F)cc1 (stereo unspecified)	>100
C[Si](C)(C)CC(O)(Cn1cncn1)c1ccccc1F (stereo unspecified)	100
CC(n1cncn1)C(O)(C[Si](C)(C)C)c1ccc(F)cc1 (stereo unspecified)	50
CCC(n1cncn1)C(O)(C[Si](C)(C)C)c1ccc(F)cc1 (stereo unspecified)	>100
C[Si](C)(C)CC(O)(Cn1cncn1)c1ccc(Cl)cc1F (stereo unspecified)	50
C[Si](C)(C)CC(O)(Cn1cncn1)c1cccc(F)c1 (stereo unspecified)	50
C[Si](C)(C)CC(O)(Cn1cncn1)c1ccc(C(F)(F)F)cc1 (stereo unspecified)	100
C[Si](C)(C)CC(O)(Cn1cncn1)c1ccc(Br)cc1 (stereo unspecified)	>100
C[Si](C)(C)CC(O)(Cn1cncn1)c1ccc(F)cc1F (stereo unspecified)	100
C[Si](C)(C)CC(O)(Cn1cncn1)c1ccccc1 (stereo unspecified)	50
Cc1ccc(C(O)(Cn2cncn2)C[Si](C)(C)C)cc1 (stereo unspecified)	>100
COc1ccc(C(O)(Cn2cncn2)C[Si](C)(C)C)cc1 (stereo unspecified)	>100
C[Si](C)(C)CC(O)(Cn1cncn1)c1ccc(Cl)cc1Cl (stereo unspecified)	100
C[Si](C)(C)CC(O)(Cn1cncn1)c1ccc(Cl)cc1 (stereo unspecified)	25
CC(C)Oc1cccc(NC(=O)c2ccccc2C(F)(F)F)c1 [FLUTOLANIL]	>100
CCCCC(O)(Cn1cncn1)c1ccc(Cl)cc1Cl (stereo unspecified) [HEXACONAZOLE]	50
C[Si](C)(C)CC(O)(Cn1cncn1)c1ccc(F)cc1 (stereo unspecified) [SIMECONAZOLE]	12.5
